Earlier results on one compound are cited in PMC5447021, “TNF Lectin-Like Domain Restores Epithelial Sodium Channel Function in Frameshift Mutants Associated with Pseudohypoaldosteronism Type 1B” (Frontiers in Immunology, 2017).

The target in this series is T1, αβγ-hENaC (Homo sapiens, UniProt P37088+P51168+P51170).
T1 construct: expressed in transfected cells; host or cells: HEK-293
T1 sequence (P37088 1-669): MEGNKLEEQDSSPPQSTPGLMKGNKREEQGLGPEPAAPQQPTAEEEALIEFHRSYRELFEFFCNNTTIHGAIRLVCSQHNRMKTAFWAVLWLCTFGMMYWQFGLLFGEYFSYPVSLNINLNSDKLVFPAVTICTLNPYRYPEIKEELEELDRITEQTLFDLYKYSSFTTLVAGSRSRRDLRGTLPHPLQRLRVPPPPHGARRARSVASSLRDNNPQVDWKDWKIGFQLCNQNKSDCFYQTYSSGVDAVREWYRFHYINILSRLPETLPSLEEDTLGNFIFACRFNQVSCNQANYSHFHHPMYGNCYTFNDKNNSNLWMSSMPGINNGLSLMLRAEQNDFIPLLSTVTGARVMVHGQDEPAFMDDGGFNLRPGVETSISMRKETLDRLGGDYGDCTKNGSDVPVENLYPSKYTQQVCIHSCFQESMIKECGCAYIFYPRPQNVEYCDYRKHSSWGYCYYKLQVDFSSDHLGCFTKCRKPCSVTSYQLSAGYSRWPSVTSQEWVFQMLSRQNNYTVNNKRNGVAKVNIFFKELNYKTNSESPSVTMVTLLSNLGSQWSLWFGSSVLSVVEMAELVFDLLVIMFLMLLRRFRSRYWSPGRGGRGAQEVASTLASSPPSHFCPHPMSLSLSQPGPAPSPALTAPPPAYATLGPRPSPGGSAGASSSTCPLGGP
T1 sequence (P51168 1-640 partner): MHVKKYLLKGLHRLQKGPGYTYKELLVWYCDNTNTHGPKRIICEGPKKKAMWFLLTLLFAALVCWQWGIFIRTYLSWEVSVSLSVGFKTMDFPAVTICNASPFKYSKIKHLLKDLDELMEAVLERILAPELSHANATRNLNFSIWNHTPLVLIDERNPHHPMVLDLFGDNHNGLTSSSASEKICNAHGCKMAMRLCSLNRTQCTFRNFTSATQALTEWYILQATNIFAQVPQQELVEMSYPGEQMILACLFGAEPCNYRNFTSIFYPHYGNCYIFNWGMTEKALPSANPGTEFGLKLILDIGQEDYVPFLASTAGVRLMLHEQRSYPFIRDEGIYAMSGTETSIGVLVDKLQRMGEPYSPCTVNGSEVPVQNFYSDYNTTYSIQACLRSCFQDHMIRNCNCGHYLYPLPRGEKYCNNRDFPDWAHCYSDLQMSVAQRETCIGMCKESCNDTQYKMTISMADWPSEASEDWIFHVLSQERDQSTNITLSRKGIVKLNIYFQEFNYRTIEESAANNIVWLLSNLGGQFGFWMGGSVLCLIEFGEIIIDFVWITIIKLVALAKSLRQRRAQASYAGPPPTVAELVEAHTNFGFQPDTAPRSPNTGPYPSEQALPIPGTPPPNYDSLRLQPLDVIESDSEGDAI
T1 sequence (P51170 1-649 partner): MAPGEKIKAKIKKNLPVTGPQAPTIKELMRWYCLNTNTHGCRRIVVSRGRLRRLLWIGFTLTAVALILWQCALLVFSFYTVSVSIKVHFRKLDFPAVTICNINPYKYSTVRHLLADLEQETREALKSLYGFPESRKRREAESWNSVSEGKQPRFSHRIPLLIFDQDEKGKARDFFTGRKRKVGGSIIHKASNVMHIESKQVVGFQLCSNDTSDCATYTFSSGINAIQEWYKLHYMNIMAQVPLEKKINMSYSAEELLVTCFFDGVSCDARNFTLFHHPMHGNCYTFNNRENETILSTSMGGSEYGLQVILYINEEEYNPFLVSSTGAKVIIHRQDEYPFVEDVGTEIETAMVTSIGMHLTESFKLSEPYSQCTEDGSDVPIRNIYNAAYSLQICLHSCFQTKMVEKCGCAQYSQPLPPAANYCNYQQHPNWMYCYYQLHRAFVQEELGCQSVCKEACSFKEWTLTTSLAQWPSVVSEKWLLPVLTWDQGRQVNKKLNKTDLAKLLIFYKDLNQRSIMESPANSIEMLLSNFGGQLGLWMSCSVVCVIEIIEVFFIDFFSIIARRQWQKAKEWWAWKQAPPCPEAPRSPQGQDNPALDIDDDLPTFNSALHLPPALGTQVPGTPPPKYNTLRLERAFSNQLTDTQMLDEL
Also noted: method as in 2 sources, ref 16 = [16]; PMID 24077967; doi:10.1124/mol.113.089409; 16 Shabbir W Scherbaum-Hazemi P Tzotzos S Fischer B Fischer H Pietschmann H Mechanism of action of novel lung edema therapeutic AP301 by activation of the epithelial sodium channel . Mol Pharmacol ( 2 ||| ref 24 = [24]; PMID 20979368; doi:10.1021/jm100767p; 24 Hazemi P Tzotzos SJ Fischer B Andavan GS Fischer H Pietschmann H Essential structural features of TNF-α lectin-like domain derived peptides for activation of amiloride-sensitive sodium current in A. The settings on record: αβγ-hENaC in HEK-293, whole-cell, -100 mV, amiloride-sensitive control current 75.8 ± 4.5 pA, mean ± S.E.; cited from earlier work.

Regarding `C[C@@H]1NC(=O)CNC(=O)[C@H](CCC(=O)O)NC(=O)[C@@H]2CCCN2C(=O)[C@H]([C@@H](C)O)NC(=O)[C@H](CCC(=O)O)NC(=O)[C@H](CCCNC(=N)N)NC(=O)[C@H](CCC(N)=O)NC(=O)CNC(=O)[C@@H](N)CSSC[C@@H](C(=O)O)NC(=O)[C@H](Cc2ccc(O)cc2)NC(=O)[C@H](Cc2c[nH]c3ccccc23)NC(=O)[C@@H]2CCCN2C(=O)[C@H](CCCCN)NC(=O)[C@H](C)NC(=O)[C@H](CCC(=O)O)NC1=O` [solnatide, L-cysteine, L-cysteinylglycyl-L-glutaminyl-L-arginyl-L-α-glutamyl-L-threonyl-L-prolyl-L-α-glutamylglycyl-L-alanyl-L-α-glutamyl-L-alanyl-L-lysyl-L-prolyl-L-tryptophyl-L-tyrosyl-, cyclic (1→17)-disulfide], the “Maximal induced current, solnatide” value is listed as 953.2 ± 11.5 pA.
